{"source": "paper PMC12080252", "about": "“Daphnia magna as an Alternative Model for (Simultaneous) Bioaccumulation and Chronic Toxicity Assessment—Controlled Exposure Study Indicates High Hazard of Heterocyclic PAHs” (Environmental Science & Technology, 2025)", "key": {"Daphnia magna": {"test_system": "Daphnia magna", "assay_type": "in vivo", "conditions": "for body burden at the end of the depuration phase: 12-day depuration; for log BAF*L5%: 21 days of exposure, assuming steady-state; for % reproductive inhibition: Fig. S10; for % inhibition, avr.: average of vessels; for body burden: after 21-day exposure; for removed fraction of accumulated body burden: after 12 days of depuration; for #dead offspring per mother / #live offspring per mother: per vessel; for appearance of mother: vessel 3", "description": "To maximize data output, we combined chronic toxicity and bioaccumulation tests in an integrated approach where the chronic toxicity test also served as an uptake phase followed by a depuration/recovery phase (Table S3). This simultaneous bioaccumulation/chronic toxicity test was performed for BNT and DNF. Of the 10 replicates per exposure level, five animals were sampled on day 21 to measure accumulated chemical concentrations and wet weights. The remaining five were transferred to clean media without test chemicals for a 12-day depuration phase under conditions identical with the uptake phase except for the absence of test chemicals. Juvenile counts were recorded daily. At the end of the depuration period, five Daphnia were collected, weighed, and analyzed for body burden (i.e., concentration of test chemical per unit of body weight) using the extraction procedure described in Section 2.7.\nFor quantification of body burdens, 5 daphnids were thawed, homogenized in 5 mL Milli-Q water (IKA T-25 digital Ultra-TURRAX) and extracted twice with 2 mL of hexane. The extracts were combined, dried with Na2SO4, concentrated under a nitrogen stream, and spiked with internal standard."}, "D. magna": {"test_system": "D. magna", "conditions": "Table S1; footnote not given; cited from earlier work"}, "[1]": {"conditions": "after DNF 1.43 µg/L exposure, 12-day depuration phase"}, "[2]": {"conditions": "after 11.96 µg/L, depuration phase day 1"}, "[3]": {"conditions": "after 11.96 µg/L, depuration phase day 9"}}, "note": "Where “and” joins values, the source holds several entries; their conditions need not be identical. Identical values can stand only once. Like-named read-outs stand apart in the source and are kept apart here."}
{"smiles": "c1ccc2c(c1)ccc1oc3ccc4ccccc4c3c12", "note": "[DNF, dinaphtho[2,1-b:1′,2′-d]furan]", "values": [{"measurement": "body burden at the end of the depuration phase", "setting": "Daphnia magna", "value": "below the LOQ"}, {"measurement": "log BAF*L5%", "setting": "Daphnia magna", "value": 4.20}, {"measurement": "% reproductive inhibition", "setting": "Daphnia magna; DNF 1.43 µg/L, entire test (days 1-33)", "value": 35, "unit": "%"}, {"measurement": "% reproductive inhibition", "setting": "Daphnia magna; DNF 1.43 µg/L, only depuration phase (days 21-33)", "value": 14, "unit": "%"}, {"measurement": "% reproductive inhibition", "setting": "Daphnia magna; DNF 1.43 µg/L, only uptake phase (days 0-21)", "value": 57, "unit": "%"}, {"measurement": "%offspring mortality", "setting": "Daphnia magna; DNF 1.43 µg/L, 21-day exposure", "value": 42.26, "unit": "%"}, {"measurement": "% inhibition, avr.", "setting": "Daphnia magna; DNF 1.43 µg/L, 21-day exposure", "value": 57.5, "unit": "%"}, {"measurement": "#average live offspring", "setting": "Daphnia magna; DNF 1.43 µg/L, 21-day exposure, per surviving mother", "value": 31}, {"measurement": "#total live offspring", "setting": "Daphnia magna; DNF 1.43 µg/L, 21-day exposure, sum of all vessels", "value": 276}, {"measurement": "body burden", "setting": "Daphnia magna; CW = 1.4 μg L^–1", "value": 6.9, "unit": "mg kg^–1"}, {"measurement": "removed fraction of accumulated body burden", "setting": "Daphnia magna", "value": "at least 99.57%"}, {"measurement": "#average live offspring (depuration phase)", "setting": "Daphnia magna; [1]", "value": 64}, {"measurement": "%offspring mortality (depuration phase)", "setting": "Daphnia magna; [1]", "value": 3.38, "unit": "%"}, {"measurement": "#total live offspring (depuration phase)", "setting": "Daphnia magna; after DNF 1.43 µg/L exposure, 12-day depuration phase, sum of all vessels", "value": 257}, {"measurement": "observation of mother animal (depuration phase)", "setting": "Daphnia magna; after DNF 1.43 µg/L exposure, vessel 8, depuration day 3", "value": "dead"}]}
{"smiles": "c1ccc2c(c1)ccc1[nH]c3ccccc3c12", "note": "[BCRB, 7H-benzo[c]carbazole]", "values": [{"measurement": "lowest PNEC*", "setting": "D. magna", "value": 0.017, "unit": "µg/L"}]}
{"smiles": "c1ccc2c(c1)ccc1sc3ccccc3c12", "note": "[BNT, benzo[b]naphtho[1,2-d]thiophene]", "values": [{"measurement": "%offspring mortality", "setting": "Daphnia magna; 11.96 µg/L, 21-day exposure", "value": 28.01, "unit": "%"}, {"measurement": "#total live offspring", "setting": "Daphnia magna; 11.96 µg/L, all vessels, exposure day 9", "value": 32}, {"measurement": "#total live offspring", "setting": "Daphnia magna; 11.96 µg/L, all vessels, exposure day 12", "value": 46}, {"measurement": "#total live offspring", "setting": "Daphnia magna; 11.96 µg/L, all vessels, exposure day 13", "value": 42}, {"measurement": "#total live offspring", "setting": "Daphnia magna; 11.96 µg/L, all vessels, exposure day 14", "value": 15}, {"measurement": "#total live offspring", "setting": "Daphnia magna; 11.96 µg/L, all vessels, exposure day 15", "value": 0}, {"measurement": "#total live offspring", "setting": "Daphnia magna; 11.96 µg/L, all vessels, exposure day 16", "value": 77}, {"measurement": "#total live offspring", "setting": "Daphnia magna; 11.96 µg/L, all vessels, exposure day 19", "value": 56}, {"measurement": "#total live offspring", "setting": "Daphnia magna; 11.96 µg/L, all vessels, exposure day 20", "value": 46}, {"measurement": "#total live offspring", "setting": "Daphnia magna; 11.96 µg/L, all vessels, exposure day 21", "value": 20}, {"measurement": "#total live offspring", "setting": "Daphnia magna; 11.96 µg/L, all vessels, whole 21-day exposure", "value": 329}, {"measurement": "average increase of live offspring", "setting": "Daphnia magna; 11.96 µg/L, cumulative, exposure day 9", "value": 3.2}, {"measurement": "average increase of live offspring", "setting": "Daphnia magna; 11.96 µg/L, cumulative, exposure day 12", "value": 8}, {"measurement": "average increase of live offspring", "setting": "Daphnia magna; 11.96 µg/L, cumulative, exposure day 13", "value": 12}, {"measurement": "average increase of live offspring", "setting": "Daphnia magna; 11.96 µg/L, cumulative, exposure day 14", "value": 14}, {"measurement": "average increase of live offspring", "setting": "Daphnia magna; 11.96 µg/L, cumulative, exposure day 15", "value": 14}, {"measurement": "average increase of live offspring", "setting": "Daphnia magna; 11.96 µg/L, cumulative, exposure day 16", "value": 23}, {"measurement": "average increase of live offspring", "setting": "Daphnia magna; 11.96 µg/L, cumulative, exposure day 19", "value": 29}, {"measurement": "average increase of live offspring", "setting": "Daphnia magna; 11.96 µg/L, cumulative, exposure day 20", "value": 34}, {"measurement": "average increase of live offspring", "setting": "Daphnia magna; 11.96 µg/L, cumulative, exposure day 21", "value": 36}, {"measurement": "% inhibition, avr.", "setting": "Daphnia magna; 11.96 µg/L, live offspring, 21-day exposure", "value": 49.3, "unit": "%"}, {"measurement": "#average live offspring", "setting": "Daphnia magna; 11.96 µg/L, per mother, 21-day exposure", "value": 36}, {"measurement": "#dead offspring per mother", "setting": "Daphnia magna; 11.96 µg/L, exposure day 15", "value": 0}, {"measurement": "#live offspring per mother", "setting": "Daphnia magna; 11.96 µg/L, exposure day 15", "value": 0}, {"measurement": "appearance of mother", "setting": "Daphnia magna; 11.96 µg/L, exposure day 5", "value": "very small/pale"}, {"measurement": "appearance of mother", "setting": "Daphnia magna; 11.96 µg/L, exposure day 7", "value": "very small"}, {"measurement": "status of mother", "setting": "Daphnia magna; 11.96 µg/L, vessel 4, exposure day 13", "value": "dead"}, {"measurement": "body burden at the end of the depuration phase", "setting": "Daphnia magna", "value": "below the LOQ"}, {"measurement": "log BAF*L5%", "setting": "Daphnia magna", "value": "4.58 ± 0.05 and 4.58"}, {"measurement": "% reproductive inhibition", "setting": "Daphnia magna; BNT 4.3 µg/L, entire test (days 1-33)", "value": 20, "unit": "%"}, {"measurement": "% reproductive inhibition", "setting": "Daphnia magna; BNT 4.3 µg/L, only depuration phase (days 21-33)", "value": 6, "unit": "%"}, {"measurement": "% reproductive inhibition", "setting": "Daphnia magna; BNT 4.3 µg/L, only uptake phase (days 0-21)", "value": 36, "unit": "%"}, {"measurement": "% inhibition, avr.", "setting": "Daphnia magna; BNT 4.72 µg/L, 21-day exposure", "value": 35.5, "unit": "%"}, {"measurement": "% reproductive inhibition", "setting": "Daphnia magna; BNT 12 µg/L, entire test (days 1-33)", "value": 32, "unit": "%"}, {"measurement": "% reproductive inhibition", "setting": "Daphnia magna; BNT 12 µg/L, only depuration phase (days 21-33)", "value": 15, "unit": "%"}, {"measurement": "% reproductive inhibition", "setting": "Daphnia magna; BNT 12 µg/L, only uptake phase (days 0-21)", "value": 49, "unit": "%"}, {"measurement": "%offspring mortality", "setting": "Daphnia magna; after 11.96 µg/L, 12-day depuration phase", "value": 3.94, "unit": "%"}, {"measurement": "#total live offspring", "setting": "Daphnia magna; after 11.96 µg/L, all vessels, depuration phase day 1", "value": 0}, {"measurement": "#total live offspring", "setting": "Daphnia magna; after 11.96 µg/L, all vessels, depuration phase day 2", "value": 61}, {"measurement": "#total live offspring", "setting": "Daphnia magna; after 11.96 µg/L, all vessels, depuration phase day 5", "value": 35}, {"measurement": "#total live offspring", "setting": "Daphnia magna; after 11.96 µg/L, all vessels, depuration phase day 6", "value": 63}, {"measurement": "#total live offspring", "setting": "Daphnia magna; after 11.96 µg/L, all vessels, depuration phase day 7", "value": 37}, {"measurement": "#total live offspring", "setting": "Daphnia magna; after 11.96 µg/L, all vessels, depuration phase day 8", "value": 1}, {"measurement": "#total live offspring", "setting": "Daphnia magna; after 11.96 µg/L, all vessels, depuration phase day 9", "value": 0}, {"measurement": "#total live offspring", "setting": "Daphnia magna; after 11.96 µg/L, all vessels, depuration phase day 12", "value": 120}, {"measurement": "#total live offspring", "setting": "Daphnia magna; after 11.96 µg/L, all vessels, whole 12-day depuration phase", "value": 317}, {"measurement": "average increase of live offspring", "setting": "Daphnia magna; after 11.96 µg/L, cumulative since exposure start, depuration phase day 1", "value": 36}, {"measurement": "average increase of live offspring", "setting": "Daphnia magna; after 11.96 µg/L, cumulative since exposure start, depuration phase day 2", "value": 48}, {"measurement": "average increase of live offspring", "setting": "Daphnia magna; after 11.96 µg/L, cumulative since exposure start, depuration phase day 5", "value": 55}, {"measurement": "average increase of live offspring", "setting": "Daphnia magna; after 11.96 µg/L, cumulative since exposure start, depuration phase day 6", "value": 68}, {"measurement": "average increase of live offspring", "setting": "Daphnia magna; after 11.96 µg/L, cumulative since exposure start, depuration phase day 7", "value": 75}, {"measurement": "average increase of live offspring", "setting": "Daphnia magna; after 11.96 µg/L, cumulative since exposure start, depuration phase day 8", "value": 76}, {"measurement": "average increase of live offspring", "setting": "Daphnia magna; after 11.96 µg/L, cumulative since exposure start, depuration phase day 9", "value": 76}, {"measurement": "average increase of live offspring", "setting": "Daphnia magna; after 11.96 µg/L, cumulative since exposure start, depuration phase day 12", "value": 100}, {"measurement": "#average live offspring", "setting": "Daphnia magna; after 11.96 µg/L, per mother, 12-day depuration phase", "value": 63}, {"measurement": "#dead offspring per mother", "setting": "Daphnia magna; [2]", "value": 0}, {"measurement": "#live offspring per mother", "setting": "Daphnia magna; [2]", "value": 0}, {"measurement": "#dead offspring per mother", "setting": "Daphnia magna; after 11.96 µg/L, depuration phase day 8", "value": 0}, {"measurement": "#dead offspring per mother", "setting": "Daphnia magna; [3]", "value": 0}, {"measurement": "#live offspring per mother", "setting": "Daphnia magna; [3]", "value": 0}, {"measurement": "body burden", "setting": "Daphnia magna; CW = 4.7 μg L^–1", "value": 50, "unit": "mg kg^–1"}, {"measurement": "body burden", "setting": "Daphnia magna; CW = 12 μg L^–1", "value": 150, "unit": "mg kg^–1 wet weight"}, {"measurement": "removed fraction of accumulated body burden", "setting": "Daphnia magna", "value": "≥ 99.98", "unit": "%"}]}
